Results on two molecules are retold here after patent publication US10894798B2, “Substituted dihydropyrrolopyrazole derivative” (UBE INDUSTRIES, LTD., priority 2015, dated 2021).

Like-named read-outs stand apart in the source and are kept apart here.

One assay has as its target T1, CDK2 (Homo sapiens, UniProt P24941).
T1 construct: purchased Invitrogen Corp. PV3267
Put plainly: CDK2 enzyme inhibition test. Type of assay: biochemical. The following applies: [γ-33P]ATP, MBP substrate; Ki=IC50/(1+S/Km); read-out: Ki value of CDK2 inhibitory activity. The procedure, abridged:
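Commercial CDK2 phosphorylated MBP with [γ-33P]ATP (500 μM solution before mixing) in HEPES pH 7.4 buffer with DTT, Triton X-100 and MgCl2 for 20 min at 30 °C. TCA-precipitated 33P-MBP was counted by scintillation to give the IC50. Ki = IC50/(1+S/Km), with S the ATP concentration in the reaction.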

In assay [1] the test system is human large intestine cancer cell line (HCT-116). Put plainly: Human large intestine cancer (HCT-116) cell growth inhibition test. The class given is cell-based. In outline: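 HCT-116 cells were seeded at 0.5 to 2.0×10^3 cells/well in McCoy's 5A with 10% FBS and dosed with compound at 0.1% final DMSO after overnight culture. Growth was measured by sulforhodamine B absorbance after 3 days. GI50 was calculated from the inhibition rate at each concentration.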

In the next assay the test system is IL-17 production. As to the kind of experiment: Human PBMC various-stimulant cocktail-induced IL-17 production inhibition test. Type of assay: cell-based. As to conditions: 120 h, human T-cell suspension from PBMC, culture for 5 days, ELISA. From the text: PBMC was separated and collected by using Ficoll-Paque (manufactured by GE Healthcare Japan Corp.) from blood collected from a healthy human adult in the presence of heparin. The collected PBMC was further cultured in a flask for a certain time, and then, non-adherent cells in the supernatant were collected and used as a T-cell suspension.
A RPMI1640 medium containing 10% FBS, 1% penicillin/streptomycin/amphotericin B, essential amino acids, and pyruvic acid and containing a test compound dissolved in DMSO, a human CD28 antibody, a human IFN-γ antibody, a human IL-4 antibody, human IL-6, human IL-23, human IL-1β, and human TGF-β was added at 100 μL/well to T cell Activation Plate Anti-Human CD3 96-well plate. Subsequently, 100 μL of a T-cell suspension adjusted to 2×10^5 cells/mL was added to each well (final DMSO concentration: 0.1%). Only DMSO was added to wells not supplemented with the test compound. After culture for 5 days in a carbon dioxide incubator, the culture supernatant was collected and stored at −20° C. until IL-17 content measurement.
In the measurement of an IL-17 content in the culture supernatant, a sandwich ELISA kit (Quantikine Human IL-17, manufactured by R&D Systems, Inc.) was used. The IL-17 content of each sample was calculated from the calibration curve of Standard IL-17 included in the kit. […] The concentration of the test compound necessary for inhibiting 50% of IL-17 production (IC50 value) was calculated from the concentration of the added test compound and the rate of inhibition of IL-17 production by the test compound by using EXSUS (version 8.1.0, manufactured by CAC Exicare Corp.).

Where [2] appears, read: HCT-116, 72 h, culture for 3 days, sulforhodamine B, read-out: GI50 value, HCT-116 cell growth inhibition.

In the case of `COc1cccc(Cl)c1NC(=O)N1Cc2c(NC(=O)C3([Si](C)(C)C)CCC3)n[nH]c2C1(C)C` [IV-247, N-(2-Chloro-6-methoxyphenyl)-6,6-dimethyl-3-[1-(trimethylsilyl)cyclobutanecarboxamido]-4,6-dihydropyrrolo[3,4-c]pyrazole-5(1H)-carboxamide], the Ki on CDK2 was at least 1000 nM. For the same molecule, the GI50 in assay [1] (setting [2]) was at most 100 nM. In the assay with IL-17 production, this molecule yielded a half-inhibitory concentration (IC50) of at most 100 nM.
On to `Cc1ccc(C)c(NC(=O)N2Cc3c(NC(=O)C4([Si](C)(C)C)CCC4)n[nH]c3C2(C)C)c1F` [IV-669, N-(2-Fluoro-3,6-dimethylphenyl)-6,6-dimethyl-3-[1-(trimethylsilyl)cyclobutanecarboxamido]-4,6-dihydropyrrolo[3,4-c]pyrazole-5(1H)-carboxamide], for which the inhibition constant (Ki) at CDK2 is at least 1000 nM. Also, the GI50 in assay [1] (HCT-116 (row of Table 50), read-out: GI50 value (concentration necessary for inhibiting 50% of cell growth)) is under 300 nM; in assay [1] (setting [2]), at most 100 nM. The molecule also showed an IC50 in the assay with IL-17 production of at most 100 nM.

As a reminder, the Ki is a measure of affinity in units of concentration, obtained from inhibition or displacement. A word on the IC50: it is the concentration at which inhibition is half-maximal. A higher IC50 goes with lower potency.
